Assay results: ChEMBL document CHEMBL5505958, “Optimization of sequence and chiral content enhances therapeutic potential of tilapia piscidin peptides” (Eur J Med Chem, 2024)
Converted amounts (≈) assume the structure as drawn. The source made the active and inactive calls. The rule behind the calls is not given here.

Key:
Pseudomonas aeruginosa = experiment: Antibacterial activity against Pseudomonas aeruginosa 19660 assessed as inhibition of bacterial growth incubated for 16 to 20 hrs; assay type: functional; details: time 16-20 hrs
Klebsiella oxytoca [1] = experiment: Antibacterial activity against Klebsiella oxytoca 13985 assessed as inhibition of bacterial growth incubated for 16 to 20 hrs; assay type: functional; details: time 16-20 hrs
Klebsiella pneumoniae [2] = experiment: Antibacterial activity against Klebsiella pneumoniae TL 297 assessed as inhibition of bacterial growth incubated for 16 to 20 hrs; assay type: functional; details: time 16-20 hrs
Klebsiella oxytoca [3] = experiment: Bactericidal activity against Klebsiella oxytoca 13985 assessed as inhibition of bacterial growth incubated for 16 to 20 hrs; assay type: functional; details: time 16-20 hrs
Klebsiella pneumoniae [4] = experiment: Bactericidal activity against Klebsiella pneumoniae TL 297 assessed as inhibition of bacterial growth incubated for 16 to 20 hrs; assay type: functional; details: time 16-20 hrs
Erythrocyte [5] = experiment: Hemolytic activity in human Red blood cells assessed as hemolysis at 200 uM incubated for 1 hrs; assay type: toxicity, cell-based
Lipopolysaccharide (LPS) = experiment: Displacement of BODIPY-TR-cadaverine from Klebsiella pneumoniae BAA 2473 lipopolysaccharide (LPS) assessed as increase in fluorescence intensity at 1.56 uM by fluorescence spectrophotometric analysis; assay type: subcellular
Cell membrane = experiment: Induction of outer cell membrane permeabilization in Klebsiella pneumoniae BAA 2473 assessed as increase in fluorescence intensity by PI staining based analysis; assay type: cell membranes
Klebsiella pneumoniae [6] = experiment: Antibacterial activity against Klebsiella pneumoniae BAA 2473 assessed as doxycycline MIC; assay type: functional
Klebsiella pneumoniae [7] = experiment: Antibacterial activity against Klebsiella pneumoniae BAA 2473 assessed as inhibition of bacterial growth in presence of meropenem; assay type: functional
Klebsiella pneumoniae [8] = experiment: Antibacterial activity against Klebsiella pneumoniae BAA 2473 assessed as meropenem MIC; assay type: functional
Klebsiella pneumoniae [9] = experiment: Antibacterial activity against Klebsiella pneumoniae BAA 2473 assessed as inhibition of bacterial growth in presence of ciprofloxacin; assay type: functional
Klebsiella pneumoniae [10] = experiment: Antibacterial activity against Klebsiella pneumoniae BAA 2473 assessed as ciprofloxacin MIC; assay type: functional
Klebsiella pneumoniae [11] = experiment: Synergistic antibacterial activity against Klebsiella pneumoniae BAA 2473 assessed as fractional inhibitory concentration index in presence of doxycycline by checkerboard assay; assay type: functional
Klebsiella pneumoniae [12] = experiment: Additive antibacterial activity against Klebsiella pneumoniae BAA 2473 assessed as fractional inhibitory concentration index in presence of meropenem by checkerboard assay; assay type: functional
Klebsiella pneumoniae [13] = experiment: Synergistic antibacterial activity against Klebsiella pneumoniae BAA 2473 assessed as fractional inhibitory concentration index in presence of ciprofloxacin by checkerboard assay; assay type: functional
[14] = Toxicity in C57BL/6 mouse assessed as mortality at 5 to 10 mg/kg, iv measured for 7 days; assay type: organism-based; details: in vivo, 168 h, dose 5-10 mg/kg, time 7 day
[15] = Toxicity in C57BL/6 mouse assessed as survival rate at 12.5 to 15 mg/kg, iv measured for 7 days; assay type: organism-based; details: in vivo, dose 12.5-15 mg/kg, time 7 day
[16] = Toxicity in C57BL/6 mouse assessed as mortality at 20 mg/kg, iv measured for 2 days; assay type: organism-based; details: in vivo, time 2 day
[17] = Toxicity in C57BL/6 mouse assessed as effect on BUN level upto 10 mg/kg, iv measured for 7 days; assay type: organism-based; details: in vivo, 168 h, time 7 day
[18] = Toxicity in C57BL/6 mouse assessed as increase in creatinine level upto 12.5 mg/kg, iv measured for 7 days; assay type: organism-based; details: in vivo, 168 h, time 7 day
[19] = Toxicity in C57BL/6 mouse assessed as change in body weight at 15 mg/kg, iv measured for 7 days; assay type: organism-based; details: in vivo, 168 h, time 7 day
[20] = Toxicity in C57BL/6 mouse assessed as effect on GOT level in liver upto 7.5 mg/kg, iv measured for 7 days; assay type: organism-based; details: in vivo, 168 h, time 7 day
Staphylococcus aureus [21] = experiment: Antibacterial activity against Staphylococcus aureus 10780 assessed as inhibition of bacterial growth incubated for 16 to 20 hrs; assay type: functional; details: time 16-20 hrs
Staphylococcus aureus [22] = experiment: Bactericidal activity against Staphylococcus aureus 10780 assessed as inhibition of bacterial growth incubated for 16 to 20 hrs; assay type: functional; details: time 16-20 hrs
Erythrocyte [23] = experiment: Hemolytic activity in human Red blood cells assessed as hemolysis at 3.13 uM incubated for 1 hrs; assay type: toxicity, cell-based
Klebsiella pneumoniae [24] = experiment: Antibacterial activity against Klebsiella pneumoniae BAA 2473 assessed as bacterial eradication measured at 2 hrs; assay type: functional
[25] = Toxicity in C57BL/6 mouse assessed as change in GPT level in liver at 15 mg/kg, iv measured for 7 days; assay type: organism-based; details: in vivo, 168 h, time 7 day
Klebsiella pneumoniae [26] = experiment: Antimicrobial activity against drug-resistant Klebsiella pneumoniae BAA 2473 infected in C57BL/6 mouse assessed as fold reduction in bacterial load at 5 mg/kg, po administered for 2 hrs and measured at 24 hrs; assay type: functional

Molecule | MIC (Pseudomonas aeruginosa) | MIC (Klebsiella oxytoca [1]) | MIC (Klebsiella pneumoniae [2]) | MBC (Klebsiella oxytoca [3]) | MBC (Klebsiella pneumoniae [4]) | Activity (Erythrocyte [5]) | Activity (Lipopolysaccharide (LPS)) | Activity (Cell membrane) | MIC (Klebsiella pneumoniae [6]) | MIC (Klebsiella pneumoniae [7]) | MIC (Klebsiella pneumoniae [8]) | MIC (Klebsiella pneumoniae [9]) | MIC (Klebsiella pneumoniae [10]) | fractional inhibitory concentration index (FICI) (Klebsiella pneumoniae [11]) | fractional inhibitory concentration index (FICI) (Klebsiella pneumoniae [12]) | fractional inhibitory concentration index (FICI) (Klebsiella pneumoniae [13]) | MIC (Staphylococcus aureus [21]) | MBC (Staphylococcus aureus [22]) | further results
CC(C)C[C@H](NC(=O)[C@H](CCCCN)NC(=O)[C@@H](CCCCN)NC(=O)[C@H](CC(C)C)NC(=O)[C@@H](N)Cc1ccccc1)C(=O)N[C@H](CC(C)C)C(=O)N[C@@H](CCCCN)C(=O)N[C@@H](C)C(=O)N[C@H](CC(C)C)C(=O)N[C@@H](Cc1ccccc1)C(=O)N[C@@H](CO)C(=O)N[C@H](C)C(=O)N1CCC[C@H]1C(=O)N[C@@H](CCCCN)C(=O)N[C@H](C)C(=O)N[C@@H](CC(C)C)C(=O)N[C@@H](CCCCN)C(=O)N[C@H](CCCNC(=N)N)C(=O)N[C@@H](CC(C)C)C(=O)N[C@@H](CC(C)C)C(=O)N[C@H](CCCNC(=N)N)C(=O)N[C@@H](CCCNC(=N)N)C(=O)N[C@@H](CCCNC(=N)N)C(=O)N[C@H](CCCNC(=N)N)C(=O)N[C@@H](CCCNC(=N)N)C(=O)O | 3.13 µM (≈ 9.64 µg/mL) | 1.56 µM (≈ 4.8 µg/mL) | 12.5 µM (≈ 38.5 µg/mL) | 1.56 µM (≈ 4.8 µg/mL) | 6.25 µM (≈ 19.2 µg/mL) | Non-Toxic | Active | Active | 6.25 µM | 0.78 µM | 3.12 µM | 0.097 µM | 0.195 µM | 0.375 | 1 | 1.003 |  |  | Activity [14]: Non-Toxic; survival at 168 h [15]: 80%; mortality at 48 h [16]: 100%; Activity [17]: Non-Toxic; Activity [18]: Non-Toxic; Activity [19]: Non-Toxic; Activity [20]: Non-Toxic
H-FIHHIIGGLFSAGKAIHRLIRRRRR-OH |  |  |  |  |  |  |  |  |  |  |  |  |  |  |  |  | 0.78 µM | 0.78 µM | Activity (Erythrocyte [23]): Non-Toxic; Activity (Klebsiella pneumoniae [24]): 100%
CC(C)C[C@H](NC(=O)[C@@H](C)NC(=O)[C@@H](CCCCN)NC(=O)[C@H](CC(C)C)NC(=O)[C@@H](CC(C)C)NC(=O)[C@@H](CCCCN)NC(=O)[C@H](CCCCN)NC(=O)[C@@H](CC(C)C)NC(=O)[C@H](N)Cc1ccccc1)C(=O)N[C@H](Cc1ccccc1)C(=O)N[C@H](CO)C(=O)N[C@@H](C)C(=O)N1CCC[C@@H]1C(=O)N[C@H](CCCCN)C(=O)N[C@@H](C)C(=O)N[C@H](CC(C)C)C(=O)N[C@H](CCCCN)C(=O)N[C@@H](CCCNC(=N)N)C(=O)N[C@H](CC(C)C)C(=O)N[C@H](CC(C)C)C(=O)N[C@@H](CCCNC(=N)N)C(=O)N[C@H](CCCNC(=N)N)C(=O)N[C@H](CCCNC(=N)N)C(=O)N[C@@H](CCCNC(=N)N)C(=O)N[C@@H](CCCNC(=N)N)C(=O)O | 3.13 µM (≈ 9.64 µg/mL) | 3.13 µM (≈ 9.64 µg/mL) | 6.25 µM (≈ 19.2 µg/mL) | 3.13 µM (≈ 9.64 µg/mL) | 6.25 µM (≈ 19.2 µg/mL) | Non-Toxic | Active | Active | 1.56 µM | 0.78 µM | 400 µM | 1.56 µM | 50 µM | 0.5 | 1.003 | 0.562 | 12.5 µM (≈ 38.5 µg/mL) | 6.25 µM (≈ 19.2 µg/mL) | Activity [25]: Non-Toxic; fold change (FC) (Klebsiella pneumoniae [26]): ~10
